In one assay the target is HDAC6 (Homo sapiens (Human), UniProt Q9UBN7). Description: HDAC6 enzymatic assay. The conditions noted are these: read-out: Human HDAC6 IC50. The class given is biochemical. The procedure: (§1) All enzymatic reactions were conducted in duplicate at room temperature for 17 hours in a 50 μl mixture containing HDAC assay buffer (50 mM Tris-HCl, pH 7.4, 137 mM NaCl, 2.7 mM KCl, 0.05% Tween 20, 5 μg BSA), an HDAC substrate, an HDAC enzyme, and a test compound. Compound dilution was prepared ten-fold higher than the final concentration of the compounds with 10% DMSO in HDAC assay buffer and 5 μl of the dilution was added to a 50 μl reaction so that the final concentration of DMSO is 1% in all of reactions. After enzymatic reactions, 50 μl of HDAC Developer was added to each well and the plate was incubated at room temperature for an additional 20 minutes. Fluorescence intensity was measured at an excitation of 360 nm and an emission of 460 nm using a Tecan Infinite M1000 or Biotek Synergy microplate reader.
(§2) The fluorescent intensity data were analyzed using the computer software, Graphpad Prism. In the absence of the compound, the fluorescent intensity (Ft) in each data set was defined as 100% activity. In the absence of HDAC, the fluorescent intensity (Fb) in each data set was defined as 0% activity. The percent activity in the presence of each compound was calculated according to the following equation: % activity=(F−Fb)/(Ft−Fb), where F=the fluorescent intensity in the presence of the compound.
(§3) The values of % activity versus a series of compound concentrations were then plotted using non-linear regression analysis of Sigmoidal dose-response curve generated with the equation Y=B+(T−B)/1+10((Log EC50−X)×Hill Slope), where Y=percent activity, B=minimum percent activity, T=maximum percent activity, X=logarithm of compound and Hill Slope=slope factor or Hill coefficient. The IC50 value was determined by the concentration causing a half-maximal percent activity.
(§4) HDAC1 enzymatic assays contained 0.5 ng HDAC1 and 10 uM of HDAC substrate. HDAC2 enzymatic assays contained 0.5 ng HDAC2 and 10 uM of HDAC substrate. HDAC3 enzymatic assays contained 0.4 ng HDAC3/NCOR2 and 10 uM of HDAC substrate. HDAC4 enzymatic assays contained 0.02 ng HDAC4 and 2 uM of HDAC substrate. HDAC5 enzymatic assays contained 0.5 ng HDAC5 and 2 uM of HDAC substrate. HDAC6 enzymatic assays contained 2 ng HDAC6 and 10 uM of HDAC substrate. HDAC7 enzymatic assays contained 0.05 ng HDAC7 and 2 uM of HDAC substrate. HDAC8 enzymatic assays contained 5 ng HDAC8 and 2 uM of HDAC substrate. HDAC9 enzymatic assays contained 1 ng HDAC9 and 2 uM of HDAC substrate. HDAC10 enzymatic assays contained 75 ng HDAC10 and 10 uM of HDAC substrate. HDAC11 enzymatic assays contained 5 ng HDAC11 and 2 uM of HDAC substrate.

Another assay addresses HDAC1 (Homo sapiens (Human), UniProt Q13547). Description: HDAC1 enzymatic assay. The class given is biochemical. The conditions noted are these: read-out: Human HDAC1 IC50. The procedure: as §1, §2, §3, §4

Each structure is given as a SMILES string. Where only a bound is given, the exact number is not on record here.

Data on 22 compounds can be found in patent US10357493B2, “Metalloenzyme inhibitor compounds” (Selenity Therapeutics (Bermuda), Ltd., priority 2017, dated 2019).

Sequence of HDAC6 (Q9UBN7 whole entry): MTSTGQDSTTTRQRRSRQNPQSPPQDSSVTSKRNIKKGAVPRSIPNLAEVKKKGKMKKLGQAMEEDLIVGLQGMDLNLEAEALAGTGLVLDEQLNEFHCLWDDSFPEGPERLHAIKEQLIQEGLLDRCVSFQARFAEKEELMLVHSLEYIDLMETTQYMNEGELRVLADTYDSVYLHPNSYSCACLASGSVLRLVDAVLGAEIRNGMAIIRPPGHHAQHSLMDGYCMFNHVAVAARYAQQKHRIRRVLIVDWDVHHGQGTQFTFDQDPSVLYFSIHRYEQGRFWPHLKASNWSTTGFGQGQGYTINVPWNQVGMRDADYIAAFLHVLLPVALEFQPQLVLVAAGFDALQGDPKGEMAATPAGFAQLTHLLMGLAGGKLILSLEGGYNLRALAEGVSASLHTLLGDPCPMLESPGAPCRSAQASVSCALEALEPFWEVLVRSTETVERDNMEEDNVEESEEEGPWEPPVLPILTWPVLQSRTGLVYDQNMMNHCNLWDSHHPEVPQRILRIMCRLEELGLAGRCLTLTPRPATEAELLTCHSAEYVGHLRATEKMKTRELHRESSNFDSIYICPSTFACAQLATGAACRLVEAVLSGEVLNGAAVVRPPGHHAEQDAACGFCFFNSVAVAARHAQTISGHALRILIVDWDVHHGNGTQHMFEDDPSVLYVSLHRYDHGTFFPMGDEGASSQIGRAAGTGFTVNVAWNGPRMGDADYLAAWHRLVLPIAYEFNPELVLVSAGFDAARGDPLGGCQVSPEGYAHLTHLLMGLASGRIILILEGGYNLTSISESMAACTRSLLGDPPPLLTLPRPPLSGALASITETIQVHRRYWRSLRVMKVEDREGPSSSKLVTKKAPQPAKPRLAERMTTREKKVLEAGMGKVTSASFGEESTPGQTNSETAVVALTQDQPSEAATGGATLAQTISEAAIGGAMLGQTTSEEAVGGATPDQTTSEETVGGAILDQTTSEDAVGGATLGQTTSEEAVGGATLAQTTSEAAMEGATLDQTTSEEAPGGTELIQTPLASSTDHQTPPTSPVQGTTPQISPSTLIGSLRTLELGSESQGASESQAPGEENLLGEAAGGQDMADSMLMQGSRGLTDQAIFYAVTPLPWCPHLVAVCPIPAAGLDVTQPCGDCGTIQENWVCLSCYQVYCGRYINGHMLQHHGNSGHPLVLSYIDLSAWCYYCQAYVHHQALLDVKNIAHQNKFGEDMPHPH
Sequence of HDAC1 (Q13547 whole entry): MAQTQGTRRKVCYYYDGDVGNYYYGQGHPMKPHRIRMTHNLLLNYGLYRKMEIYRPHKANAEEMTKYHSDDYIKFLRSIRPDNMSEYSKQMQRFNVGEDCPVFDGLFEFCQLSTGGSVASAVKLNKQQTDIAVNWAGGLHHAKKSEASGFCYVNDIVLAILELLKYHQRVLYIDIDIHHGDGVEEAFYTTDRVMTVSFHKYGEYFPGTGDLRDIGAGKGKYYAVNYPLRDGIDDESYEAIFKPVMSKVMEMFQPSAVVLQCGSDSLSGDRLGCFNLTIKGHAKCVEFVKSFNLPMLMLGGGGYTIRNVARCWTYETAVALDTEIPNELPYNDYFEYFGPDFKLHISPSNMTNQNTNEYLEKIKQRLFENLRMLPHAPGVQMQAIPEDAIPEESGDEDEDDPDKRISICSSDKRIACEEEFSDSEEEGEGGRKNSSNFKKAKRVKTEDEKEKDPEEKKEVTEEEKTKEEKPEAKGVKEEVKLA

In the case of `CC(=O)NCC(Nc1ncc(-c2nnc(C(F)F)o2)cn1)c1ccc(F)cc1` (racemic) [Example 78, N-(2-((5-(5-(difluoromethyl)-1,3,4-oxadiazol-2-yl)pyrimidin-2-yl)amino)-2-(4-fluorophenyl)ethyl)acetamide], the IC50 at HDAC6 was 47 nM; on HDAC1, > 30000 nM. `CS(=O)(=O)NCC(Nc1ncc(-c2nnc(C(F)F)o2)cn1)c1ccc(F)cc1` (single isomer, unassigned) [38(−), N-(2-((5-(5-(difluoromethyl)-1,3,4-oxadiazol-2-yl)pyrimidin-2-yl)amino)-2-(4-fluorophenyl)ethyl) methanesulfonamide]: the values for the IC50 at HDAC6 and on HDAC1 were 320 nM and > 30000 nM, respectively. For `CC(=O)NCC(Nc1ncc(-c2nnc(C(F)F)o2)cn1)c1ccc(F)cc1` (single isomer, unassigned) [78(+), N-(2-((5-(5-(difluoromethyl)-1,3,4-oxadiazol-2-yl)pyrimidin-2-yl)amino)-2-(4-fluorophenyl)ethyl)acetamide], in that order: 48 nM and > 30000 nM.

Consider `CC(=O)NCC(Nc1ncc(-c2nnc(C(F)F)o2)cn1)c1ccc(F)cc1` (single isomer, unassigned) [78(−), N-(2-((5-(5-(difluoromethyl)-1,3,4-oxadiazol-2-yl)pyrimidin-2-yl)amino)-2-(4-fluorophenyl)ethyl)acetamide], for which the concentration for half-maximal inhibition (IC50) at HDAC6 was 420 nM; at HDAC1, > 30000 nM.

As for `Fc1ccc(C(CC(F)(F)F)Nc2ncc(-c3nnc(C(F)F)o3)cn2)c(F)c1` (single isomer, unassigned) [101(+)], the half-maximal inhibitory concentration (IC50) on HDAC6 is 22 nM; at HDAC1 it was > 30000 nM. On to `Fc1ccc(C(CC(F)(F)F)Nc2ncc(-c3nnc(C(F)F)o3)cn2)c(F)c1` (single isomer, unassigned) [101(−)], for which the values for the 50% inhibitory concentration (IC50) at HDAC6 and on HDAC1 were 710 nM and > 30000 nM, respectively. For `CS(=O)(=O)NCC(Nc1ncc(-c2nnc(C(F)F)o2)cn1)c1ccc(F)cc1F` (single isomer, unassigned) [103(−), N-(2-((5-(5-(difluoromethyl)-1,3,4-oxadiazol-2-yl)pyrimidin-2-yl)amino)-2-(2,4-difluorophenyl)ethyl)methanesulfonamide], in that order: 650 nM and > 30000 nM. For `CS(=O)(=O)NCC(Nc1ncc(-c2nnc(C(F)F)o2)cn1)c1ccc(OC(F)F)cc1` (single isomer, unassigned) [115(−), N-(2-(4-(difluoromethoxy)phenyl)-2-((5-(5-(difluoromethyl)-1,3,4-oxadiazol-2-yl)pyrimidin-2-yl)amino)ethyl)methanesulfonamide], the values for the half-maximal inhibitory concentration (IC50) on HDAC6 and at HDAC1 were 370 nM and > 30000 nM, respectively. On the same counts, the results for `CS(=O)(=O)NCC(Nc1ncc(-c2nnc(C(F)F)o2)cn1)c1ccc(OC(F)F)cc1F` (single isomer, unassigned) [116(−), N-(2-(4-(difluoromethoxy)-2-fluorophenyl)-2-((5-(5-(difluoromethyl)-1,3,4-oxadiazol-2-yl)pyrimidin-2-yl)amino)ethyl)methanesulfonamide] are 260 nM and > 30000 nM. For `CS(=O)(=O)NCC(Nc1ncc(-c2nnc(C(F)F)o2)cn1)c1ccc(OC(F)(F)F)cc1` (single isomer, unassigned) [122(−), N-(2-((5-(5-(difluoromethyl)-1,3,4-oxadiazol-2-yl)pyrimidin-2-yl)amino)-2-(4-(trifluoromethoxy)phenyl)ethyl)methanesulfonamide], in that order: 840 nM and > 30000 nM.

On to `CS(=O)(=O)NCC(Nc1ncc(-c2nnc(C(F)F)o2)cn1)C1CC1` (single isomer, unassigned) [123(+), N-(2-cyclopropyl-2-((5-(5-(difluoromethyl)-1,3,4-oxadiazol-2-yl)pyrimidin-2-yl)amino)ethyl)methanesulfonamide], for which the IC50 is 1100 nM at HDAC6 and > 30000 nM at HDAC1.

For `CS(=O)(=O)NCC(Nc1ncc(-c2nnc(C(F)F)o2)cn1)C1CC1` (single isomer, unassigned) [123(−), N-(2-cyclopropyl-2-((5-(5-(difluoromethyl)-1,3,4-oxadiazol-2-yl)pyrimidin-2-yl)amino)ethyl)methanesulfonamide], the 50% inhibitory concentration (IC50) at HDAC6 was 1100 nM; at HDAC1, > 30000 nM. On the same counts, the results for `CN(CC(Nc1ncc(-c2nnc(C(F)F)o2)cn1)c1ccc(F)cc1F)S(C)(=O)=O` (single isomer, unassigned) [137(+), N-(2-((5-(5-(difluoromethyl)-1,3,4-oxadiazol-2-yl)pyrimidin-2-yl)amino)-2-(2,4-difluorophenyl)ethyl)-N-methylmethanesulfonamide] are 41 nM and > 30000 nM. Consider `CCS(=O)(=O)NCC(Nc1ncc(-c2nnc(C(F)F)o2)cn1)c1ccc(F)cc1F` (single isomer, unassigned) [139(+), N-(2-((5-(5-(difluoromethyl)-1,3,4-oxadiazol-2-yl)pyrimidin-2-yl)amino)-2-(2,4-difluorophenyl)ethyl)ethanesulfonamide], for which the results for the half-inhibitory concentration (IC50) at HDAC6 and at HDAC1 were 33 nM and > 30000 nM, respectively.

`CS(=O)(=O)CC(Nc1ncc(-c2nnc(C(F)F)o2)cn1)c1ccc(F)cc1` (single isomer, unassigned) [161(−), 5-(5-(difluoromethyl)-1,3,4-oxadiazol-2-yl)-N-(1-(4-fluorophenyl)-2-(methylsulfonyl)ethyl)pyrimidin-2-amine]: the concentration for half-maximal inhibition (IC50) was 870 nM on HDAC6 and > 30000 nM on HDAC1. On the same counts, the results for `Fc1ccc(C(COCC(F)(F)F)Nc2ncc(-c3nnc(C(F)F)o3)cn2)cc1` (single isomer, unassigned) [162(+), 5-(5-(difluoromethyl)-1,3,4-oxadiazol-2-yl)-N-(1-(4-fluorophenyl)-2-(2,2,2-trifluoroethoxy)ethyl)pyrimidin-2-amine] are 130 nM and > 30000 nM. On the same counts, the results for `Fc1ccc(C(COCC(F)(F)F)Nc2ncc(-c3nnc(C(F)F)o3)cn2)cc1` (single isomer, unassigned) [162(−), 5-(5-(difluoromethyl)-1,3,4-oxadiazol-2-yl)-N-(1-(4-fluorophenyl)-2-(2,2,2-trifluoroethoxy)ethyl)pyrimidin-2-amine] are 300 nM and > 30000 nM.

Regarding `Fc1ccc(C(COCC(F)(F)F)Nc2ncc(-c3nnc(C(F)F)o3)cn2)c(F)c1` (single isomer, unassigned) [163(+), 5-(5-(difluoromethyl)-1,3,4-oxadiazol-2-yl)-N-(1-(2,4-difluorophenyl)-2-(2,2,2-trifluoroethoxy)ethyl)pyrimidin-2-amine], the half-inhibitory concentration (IC50) at HDAC6 was 110 nM; at HDAC1 it was > 30000 nM. On to `Fc1ccc(C(COCC(F)(F)F)Nc2ncc(-c3nnc(C(F)F)o3)cn2)c(F)c1` (single isomer, unassigned) [163(−), 5-(5-(difluoromethyl)-1,3,4-oxadiazol-2-yl)-N-(1-(2,4-difluorophenyl)-2-(2,2,2-trifluoroethoxy)ethyl)pyrimidin-2-amine], for which the half-inhibitory concentration (IC50) at HDAC6 is 410 nM; on HDAC1, > 30000 nM. For `CCS(=O)(=O)N(CC(Nc1ncc(-c2nnc(C(F)F)o2)cn1)c1ccc(F)cc1)CC(F)(F)F` (single isomer, unassigned) [164(+), N-(2-((5-(5-(difluoromethyl)-1,3,4-oxadiazol-2-yl)pyrimidin-2-yl)amino)-2-(4-fluorophenyl)ethyl)-N-(2,2,2-trifluoroethyl)ethanesulfonamide], in that order: 110 nM and > 30000 nM. As for `CCS(=O)(=O)N(CC(Nc1ncc(-c2nnc(C(F)F)o2)cn1)c1ccc(F)cc1)CC(F)(F)F` (single isomer, unassigned) [164(−), N-(2-((5-(5-(difluoromethyl)-1,3,4-oxadiazol-2-yl)pyrimidin-2-yl)amino)-2-(4-fluorophenyl)ethyl)-N-(2,2,2-trifluoroethyl)ethanesulfonamide], the IC50 is 230 nM at HDAC6 and > 30000 nM on HDAC1. Take `Fc1ccc(C(COC2CC2)Nc2ncc(-c3nnc(C(F)F)o3)cn2)c(F)c1` (single isomer, unassigned) [Example 134B, N-(2-cyclopropoxy-1-(2,4-difluorophenyl)ethyl)-5-(5-(difluoromethyl)-1,3,4-oxadiazol-2-yl)pyrimidin-2-amine]: the half-inhibitory concentration (IC50) at HDAC6 turned out to be 61 nM.

As usually defined, the IC50 is the concentration needed to halve the response being measured.
